Measured values reported in patent US7888285B2, “2,4,6-phenyl substituted cyclic ketoenols” (Bayer CropScience AG, priority 2003, dated 2011).

Legend:
Type in all cases: in vivo
Alopecurus [1] = test: Post-emergence test; details: greenhouse, 250 g a.i./ha, scored after three weeks
Method: (§1) To prepare a suitable active compound preparation, 1 part by weight of active compound is mixed with the stated amount of solvent, the stated amount of emulsifier is added, and the concentrate is diluted with water to the desired concentration.
(§2) Test plants with a height of 5-15 cm are sprayed with the active compound preparation in such a way that the amounts of active compound desired in each case are applied per unit area. The concentration of the spray mixture is chosen in such a way that the amounts of active compound desired in each case are applied in 1 000 1 of water/ha.
(§3) After three weeks, the degree of damage of the plants is scored in % damage in comparison with the development of the untreated control.
(§4) The figures denote: • 0% =no effect (like untreated control) • 100% =total destruction

Avena fatua [2] = test: Post-emergence test; details: greenhouse, 250 g a.i./ha, scored after three weeks
Method: as §1, §2, §3, §4

Echinochloa = test: Post-emergence test; details: greenhouse, 250 g a.i./ha, scored after three weeks
Method: as §1, §2, §3, §4

Sinapis = test: Post-emergence test; details: greenhouse, 250 g a.i./ha, scored after three weeks
Method: as §1, §2, §3, §4

cereals [3] = test: Greenhouse experiment with cereals with 100 g a.i./ha mefenpyr, post-emergence, evaluation 21 days after application; details: 50 g a.i./ha, no safener
Method: Seeds of monocotyledonous and dicotyledonous weed and crop plants are placed in sandy loam in wood fibre pots or in plastic pots, covered with soil and grown in the greenhouse or, during the vegetation period, in the open outside the greenhouse, under good growth conditions. 2 to 3 weeks after sowing, the test plants are treated in the one- to three-leaf stage. The test compounds, which are formulated as wettable powder (WP) or as a fluid (EC), are sprayed onto the plants and the soil surface at various dosage rates with a water application rate of 300 l/ha (converted), with added wetter (0.2 to 0.3%). 3 to 4 weeks after the treatment of the test plants, the effect of the preparations is scored visually in comparison with untreated controls (herbicidal activity in per cent (%): 100% activity=plants have died, 0% activity=like control plants). […]
The activity of the safener substance can be assessed in comparison with untreated control plants by comparing the effect of test substances on crop plants which have been treated without and with safener. […]

[4] = test system: larvae of the mustard beetle (Phaedon cochleariae); test: Phaedon larvae test; details: 1000 ppm
Method: [table] To produce a suitable preparation of active compound, 1 part by weight of active compound is mixed with the stated amounts of solvent and emulsifier, and the concentrate is diluted with emulsifier-containing water to the desired concentration. Cabbage leaves (Brassica oleracea) are treated by being dipped into the preparation of active compound of the desired concentration and are infested with the larvae of the mustard beetle (Phaedon cochleariae) while the leaves are still moist.

Spring barley = test: Post-emergence crop plant tolerance, greenhouse experiments with safener pretreatment (mefenpyr)
Method: (§5) Post-Emergence Crop Plant Tolerance
(§6) Seeds of monocotyledonous and dicotyledonous weed and crop plants are placed in sandy loam in wood fibre pots or in plastic pots, covered with soil and grown in the greenhouse or, during the vegetation period, in the open outside the greenhouse, under good growth conditions. 2 to 3 weeks after sowing, the test plants are treated in the one- to three-leaf stage. The test compounds, which are formulated as wettable powder (WP) or as a fluid (EC), are sprayed onto the plants and the soil surface at various dosage rates with a water application rate of 300 l/ha (converted), with added wetter (0.2 to 0.3%). 3 to 4 weeks after the treatment of the test plants, the effect of the preparations is scored visually in comparison with untreated controls (herbicidal activity in per cent (%): 100% activity=plants have died, 0% activity=like control plants).
(§7) If it is additionally desired to test whether safeners are capable of improving the plant tolerance of test substances with regard to the crop plants, the following options for applying the safeners are used: • Prior to application of the test substances, the crop plants are sprayed with safener at a particular application rate per hectare (usually 1 day prior to application of the test substances). • The safener is applied together with the test substance in the form of a tank mix (the amount of safener being indicated in g/ha or as a safener:herbicide ratio).
(§8) The activity of the safener substance can be assessed in comparison with untreated control plants by comparing the effect of test substances on crop plants which have been treated without and with safener.
(§9) Results of Greenhouse Experiments With Safener/Pretreatment (Safener Mefenpyr (100 g a.i./ha), One Day Prior to Post-Emergence Treatment With the Herbicide)

Spring wheat = test: as above
Method: as §5, §6, §7, §8, §9

Amaranthus = test: Post-emergence test; details: greenhouse, 250 g a.i./ha, scored after three weeks
Method: as §1, §2, §3, §4

Setaria [5] = test: Post-emergence test; details: greenhouse, 250 g a.i./ha, scored after three weeks
Method: as §1, §2, §3, §4

sugar beet [6] = test: Post-emergence test; details: greenhouse, 250 g a.i./ha, scored after three weeks
Method: as §1, §2, §3, §4

Alopecurus [7] = test: Pre-emergence test; details: greenhouse, 250 g a.i./ha, scored after three weeks
Method: (§10) [table] To prepare a suitable active compound preparation, 1 part by weight of active compound is mixed with the stated amount of solvent, the stated amount of emulsifier is added, and the concentrate is diluted with water to the desired concentration. Seeds of the test plant are sown in normal soil. After approximately 24 hours, the soil is sprayed with the active compound preparation in such a way that the amounts of active compound desired in each case are applied per unit area. The concentration of the spray mixture is chosen in such a way that the amounts of active compound desired in each case are applied in 1 000 1 of water/ha. After three weeks, the degree of damage of the plants is scored in % damage in comparison with the development of the untreated control.

Avena fatua [8] = test: Pre-emergence test; details: greenhouse, 250 g a.i./ha, scored after three weeks
Method: as §10

Setaria [9] = test: Pre-emergence test; details: greenhouse, 250 g a.i./ha, scored after three weeks
Method: as §10

sugar beet [10] = test: Pre-emergence test; details: greenhouse, 250 g a.i./ha, scored after three weeks
Method: as §10

[11] = test system: green peach aphid (Myzus persicae); test: Myzus test; details: 1000 ppm
Method: To prepare a suitable active compound preparation, 1 part by weight of active compound is mixed with the stated amounts of solvent and emulsifier and the concentrate is diluted with emulsifier-containing water to the desired concentration.
Cabbage leaves (Brassica oleracea), which are severely infested with the green peach aphid (Myzus persicae) are treated by immersing them into the active compound preparation of the desired concentration.
After the desired time, the destruction rate is determined in %. 100% means that all of the aphids have been destroyed; 0% means that none of the aphids have been destroyed.

[12] = test system: green rice leafhopper (Nephotettix cincticeps); test: Nephotettix test; details: 1000 ppm
Method: To produce a suitable preparation of active compound, 1 part
by weight of active compound is mixed with the stated amounts of solvent and emulsifier, and the concentrate is diluted with emulsifier-containing water to the desired concentration.
Rice seedlings (Oryza sativa) are treated by being dipped into the preparation of active compound of the desired concentration and are infested with the green rice leafhopper (Nephotettix cincticeps) while the leaves are still moist.
After the desired time, the destruction in % is determined. 100% means that all the leafhoppers have been killed; 0% means that none of the leafhoppers have been killed.

[13] = test system: caterpillars of the diamond-back moth (Plutella xylostella); test: Plutella test; details: 1000 ppm
Method: (§11) To produce a suitable preparation of active compound, 1 part by weight of active compound is mixed with the stated amounts of solvent and emulsifier, and the concentrate is diluted with emulsifier-containing water to the desired concentration.
Cabbage leaves (Brassica oleracea) are treated by being dipped into the preparation of active compound of the desired concentration and are infested with caterpillars of the diamond-back moth (Plutella xylostella) while the leaves are still moist.
After the desired time, the destruction in % is determined. 100% means that all the caterpillars have been killed; 0% means that none of the caterpillars have been killed.

[14] = test system: greenhouse red spider mite (Tetranychus urticae); test: Tetranychus test (OP-resistant/immersion treatment); details: 1000 ppm
Method: as §11
Bean plants (Phaseolus vulgaris) which are severely infested with all stages of the greenhouse red spider mite (Tetranychus urticae) are dipped into a preparation of the active compound of the desired concentration.
After the desired time, the activity in % is determined. 100% means that all the spider mites have been killed; 0% means that none of the spider mites have been killed.

cereals [15] = test: Container experiments with cereals outside the greenhouse, herbicide:mefenpyr 1:2 tank mix; details: 50 g a.i./ha, no safener
Method: as §6, §7, §8
Container Experiments with Cereals Outside the Greenhouse Herbicide: mefenpyr 1:2 tank mix

[16] = application rate 25 g a.i./ha, without safener
[17] = application rate 50 g a.i./ha, without safener
[18] = 100 g a.i./ha herbicide, no safener
[19] = 25 g a.i./ha herbicide, no safener
[20] = application rate 100 g a.i./ha, without safener

CCc1cc(Cl)cc(OC)c1C1=C(O)C2(CCCCC2)NC1=O [Example I-1-a-6]
degree of damage, Alopecurus (Alopecurus [1]): 90% | degree of damage, Avena fatua (Avena fatua [2]): 100% | degree of damage, Echinochloa (Echinochloa): 100% | degree of damage, Sinapis (Sinapis): 80% | Winter barley (%) (cereals [3]; winter barley): 20% | Winter wheat (%) (cereals [3]; winter wheat): 10% | Destruction in % after 7 d [4]: 90%

CCOC(=O)OC1=C(c2c(CC)cc(Cl)cc2OC)C(=O)N(CC)C1C (racemic) [Example I-1-c-7]
Spring barley observed (%) (Spring barley; application rate 13 g a.i./ha, without safener): 15% | Spring barley observed (%) (Spring barley; [16]): 30% | Spring barley observed (%) (Spring barley; [17]): 85%

CCc1cc(Cl)cc(OC)c1C1=C(OC(=O)C(C)(C)CC)C2(CCC(OC)CC2)OC1=O (mixture of isomers) [Example I-2-b-4]
Spring barley observed (%) (Spring barley; [18]): 80% | Spring wheat observed (%) (Spring wheat; [19]): 100%

COc1cc(Cl)cc(C)c1C1=C(O)C2(CCOCC2)NC1=O [Example I-1-a-2]
degree of damage, Amaranthus (Amaranthus): 90% | degree of damage, Avena fatua (Avena fatua [2]): 100% | degree of damage, Setaria (Setaria [5]): 100% | degree of damage, sugar beet (sugar beet [6]): 0% | degree of damage, Alopecurus (Alopecurus [7]): 100% | degree of damage, Avena fatua (Avena fatua [8]): 80% | degree of damage, Setaria (Setaria [9]): 80% | degree of damage, sugar beet (sugar beet [10]): 0% | Destruction in % after 6 d [11]: 100% | Destruction in % after 6 d [12]: 100% | Destruction in % after 7 d [4]: 100% | Destruction in % after 7 d [13]: 100% | Destruction in % after 7 d [14]: 95%

CCc1cc(Cl)cc(OC)c1C1=C(O)C2(CCC(OC)CC2)OC1=O (mixture of isomers) [Example I-2-a-2]
Spring barley observed (%) (Spring barley; [19]): 60% | Spring barley observed (%) (Spring barley; 50 g a.i./ha herbicide, no safener): 60% | Spring barley observed (%) (Spring barley; [18]): 97% | Spring barley observed (%) (cereals [15]; spring barley): 20% | Spring wheat observed (%) (cereals [15]; spring wheat): 95%

CCc1cc(Cl)cc(OC)c1C1=C(O)C2(CCCCC2)OC1=O [Example I-2-a-1]
Spring barley observed (%) (Spring barley; [16]): 10% | Spring barley observed (%) (Spring barley; [17]): 15% | Spring barley observed (%) (Spring barley; [20]): 20% | Spring wheat observed (%) (Spring wheat; [16]): 20% | Spring wheat observed (%) (Spring wheat; [17]): 20% | Spring wheat observed (%) (Spring wheat; [20]): 30%
